Reference: patent US6864283B2, “Oxy-and amino-substituted tetrahydrofuryl derivatives with antitumour activity” (Pharma Mar, S.A., priority 2000, dated 2005)

How the values were obtained:
Format in all cases: cell-based
[1] = test system: A459 human lung; experiment: IC50 against A459 human lung cells
[2] = test system: MEL28 melanoma; experiment: IC50 against MEL28 melanoma cells; details: Homo sapiens, SK-MEL-28
[3] = test system: HT29 human colon; experiment: IC50 against HT29 human colon cells; details: HT-29
[4] = test system: P388 leukemia; experiment: IC50 against P388 leukemia cells; details: Mus musculus

Measured: IC50

CCCCCCCCCCCCCC[C@@H]1OC[C@H](N)[C@@H]1O [IK-8-73-4]
0.01 µg/mL: [1] | [2] | [3] | [4]
